Source: ChEMBL document CHEMBL1137963, “New oligomers of conduritol-F and muco-inositol. Synthesis and biological evaluation as glycosidase inhibitors” (Bioorg Med Chem Lett, 2004)
Calls of active or inactive are those of the source. The calls are words filed in the database; no cut-off is given here.

Experiments:
[1] = target: Beta-glucosidase A (Caldicellulosiruptor saccharolyticus) (UniProt P10482); test: Concentration required to inhibit beta-glucosidase; IA means inactive
[2] = target: T1, Alpha-galactosidase A (Homo sapiens) (UniProt P06280); test: Concentration required to inhibit alpha-galactocosidase
T1 sequence (whole entry): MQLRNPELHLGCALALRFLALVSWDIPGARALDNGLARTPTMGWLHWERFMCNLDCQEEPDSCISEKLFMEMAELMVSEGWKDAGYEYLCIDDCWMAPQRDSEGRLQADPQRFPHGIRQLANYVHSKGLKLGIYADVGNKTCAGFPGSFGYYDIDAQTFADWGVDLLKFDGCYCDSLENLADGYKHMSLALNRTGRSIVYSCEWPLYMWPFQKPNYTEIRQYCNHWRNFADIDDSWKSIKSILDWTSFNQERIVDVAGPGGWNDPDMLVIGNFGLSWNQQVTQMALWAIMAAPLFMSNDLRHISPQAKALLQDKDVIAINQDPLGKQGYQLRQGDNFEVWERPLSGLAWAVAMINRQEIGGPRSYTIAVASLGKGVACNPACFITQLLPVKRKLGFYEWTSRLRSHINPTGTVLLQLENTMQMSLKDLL

[3] = target: T2, Beta-mannosidase (Rattus norvegicus) (UniProt Q4FZV0); test: Concentration required to inhibit beta-mannosidase; IA means inactive
T2 sequence (whole entry): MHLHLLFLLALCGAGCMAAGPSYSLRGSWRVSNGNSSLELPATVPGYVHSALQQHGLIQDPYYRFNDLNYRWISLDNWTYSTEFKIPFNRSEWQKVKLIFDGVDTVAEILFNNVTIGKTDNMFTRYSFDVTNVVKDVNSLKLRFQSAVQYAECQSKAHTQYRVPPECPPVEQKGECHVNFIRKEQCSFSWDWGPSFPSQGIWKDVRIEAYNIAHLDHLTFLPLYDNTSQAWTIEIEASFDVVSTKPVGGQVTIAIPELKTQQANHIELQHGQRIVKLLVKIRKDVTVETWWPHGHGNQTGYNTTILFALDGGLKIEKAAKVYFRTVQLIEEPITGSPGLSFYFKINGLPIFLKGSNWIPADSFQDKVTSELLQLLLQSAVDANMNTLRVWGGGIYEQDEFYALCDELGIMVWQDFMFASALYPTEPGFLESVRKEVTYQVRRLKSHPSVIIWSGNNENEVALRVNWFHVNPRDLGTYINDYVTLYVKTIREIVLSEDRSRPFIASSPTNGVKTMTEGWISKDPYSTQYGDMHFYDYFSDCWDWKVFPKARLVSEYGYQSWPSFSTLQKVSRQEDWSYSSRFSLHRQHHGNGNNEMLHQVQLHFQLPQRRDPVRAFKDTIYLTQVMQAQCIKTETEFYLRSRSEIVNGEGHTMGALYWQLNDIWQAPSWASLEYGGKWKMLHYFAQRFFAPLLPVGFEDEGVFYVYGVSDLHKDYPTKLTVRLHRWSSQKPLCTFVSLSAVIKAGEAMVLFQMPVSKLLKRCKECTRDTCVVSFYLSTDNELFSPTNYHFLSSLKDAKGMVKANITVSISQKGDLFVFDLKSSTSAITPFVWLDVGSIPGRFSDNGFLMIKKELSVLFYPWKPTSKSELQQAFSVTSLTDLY

[4] = target: Maltase-glucoamylase (Homo sapiens) (UniProt O43451); test: Concentration required to inhibit alpha-glucosidase
[5] = target: T3, Beta-galactosidase (Homo sapiens) (UniProt P16278); test: Concentration required to inhibit beta-galactosidase
T3 sequence (whole entry): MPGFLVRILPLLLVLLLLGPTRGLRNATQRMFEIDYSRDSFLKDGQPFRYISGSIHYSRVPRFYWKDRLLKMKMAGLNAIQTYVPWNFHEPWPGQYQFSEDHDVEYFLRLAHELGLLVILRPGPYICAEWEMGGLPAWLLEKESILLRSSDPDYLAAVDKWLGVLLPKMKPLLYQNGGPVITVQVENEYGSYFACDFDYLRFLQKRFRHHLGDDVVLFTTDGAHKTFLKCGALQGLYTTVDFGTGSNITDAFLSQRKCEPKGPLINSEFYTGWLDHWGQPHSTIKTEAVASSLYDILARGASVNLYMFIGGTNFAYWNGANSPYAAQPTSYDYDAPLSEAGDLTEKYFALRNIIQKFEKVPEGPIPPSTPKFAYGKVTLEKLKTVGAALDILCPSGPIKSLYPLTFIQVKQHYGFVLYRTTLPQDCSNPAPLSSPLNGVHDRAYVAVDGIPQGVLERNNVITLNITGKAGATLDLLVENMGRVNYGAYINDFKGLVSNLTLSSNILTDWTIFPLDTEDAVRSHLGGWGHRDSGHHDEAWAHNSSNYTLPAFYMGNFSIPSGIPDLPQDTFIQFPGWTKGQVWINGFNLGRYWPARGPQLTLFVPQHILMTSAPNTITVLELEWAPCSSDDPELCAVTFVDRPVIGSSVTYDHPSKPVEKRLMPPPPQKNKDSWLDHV

[6] = Concentration required to inhibit alpha-mannosidase; IA means inactive
[7] = target: T2, Beta-mannosidase (Rattus norvegicus); test: Concentration required to inhibit beta-mannosidase
[8] = target: Maltase-glucoamylase (Homo sapiens) (UniProt O43451); test: Concentration required to inhibit alpha-glucosidase; IA means inactive
[9] = target: T1, Alpha-galactosidase A (Homo sapiens); test: Concentration required to inhibit alpha-galactocosidase; IA means inactive
[10] = target: T3, Beta-galactosidase (Homo sapiens); test: Concentration required to inhibit beta-galactosidase; IA means inactive

Sequence of Beta-glucosidase A (Caldicellulosiruptor saccharolyticus) (P10482 whole entry): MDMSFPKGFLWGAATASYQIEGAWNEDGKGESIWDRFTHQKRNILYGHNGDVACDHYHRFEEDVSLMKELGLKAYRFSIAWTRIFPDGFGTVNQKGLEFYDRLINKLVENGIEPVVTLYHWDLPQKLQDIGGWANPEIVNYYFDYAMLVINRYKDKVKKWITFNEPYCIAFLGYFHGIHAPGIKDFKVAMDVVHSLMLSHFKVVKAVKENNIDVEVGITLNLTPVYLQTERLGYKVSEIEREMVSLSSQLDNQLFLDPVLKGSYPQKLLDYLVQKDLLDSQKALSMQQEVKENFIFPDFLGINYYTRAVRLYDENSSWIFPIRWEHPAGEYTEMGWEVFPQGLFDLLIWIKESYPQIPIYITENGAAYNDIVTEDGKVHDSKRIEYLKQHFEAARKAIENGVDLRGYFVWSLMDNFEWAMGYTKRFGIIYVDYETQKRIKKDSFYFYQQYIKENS
Sequence of Maltase-glucoamylase (Homo sapiens) (O43451 whole entry, looked up): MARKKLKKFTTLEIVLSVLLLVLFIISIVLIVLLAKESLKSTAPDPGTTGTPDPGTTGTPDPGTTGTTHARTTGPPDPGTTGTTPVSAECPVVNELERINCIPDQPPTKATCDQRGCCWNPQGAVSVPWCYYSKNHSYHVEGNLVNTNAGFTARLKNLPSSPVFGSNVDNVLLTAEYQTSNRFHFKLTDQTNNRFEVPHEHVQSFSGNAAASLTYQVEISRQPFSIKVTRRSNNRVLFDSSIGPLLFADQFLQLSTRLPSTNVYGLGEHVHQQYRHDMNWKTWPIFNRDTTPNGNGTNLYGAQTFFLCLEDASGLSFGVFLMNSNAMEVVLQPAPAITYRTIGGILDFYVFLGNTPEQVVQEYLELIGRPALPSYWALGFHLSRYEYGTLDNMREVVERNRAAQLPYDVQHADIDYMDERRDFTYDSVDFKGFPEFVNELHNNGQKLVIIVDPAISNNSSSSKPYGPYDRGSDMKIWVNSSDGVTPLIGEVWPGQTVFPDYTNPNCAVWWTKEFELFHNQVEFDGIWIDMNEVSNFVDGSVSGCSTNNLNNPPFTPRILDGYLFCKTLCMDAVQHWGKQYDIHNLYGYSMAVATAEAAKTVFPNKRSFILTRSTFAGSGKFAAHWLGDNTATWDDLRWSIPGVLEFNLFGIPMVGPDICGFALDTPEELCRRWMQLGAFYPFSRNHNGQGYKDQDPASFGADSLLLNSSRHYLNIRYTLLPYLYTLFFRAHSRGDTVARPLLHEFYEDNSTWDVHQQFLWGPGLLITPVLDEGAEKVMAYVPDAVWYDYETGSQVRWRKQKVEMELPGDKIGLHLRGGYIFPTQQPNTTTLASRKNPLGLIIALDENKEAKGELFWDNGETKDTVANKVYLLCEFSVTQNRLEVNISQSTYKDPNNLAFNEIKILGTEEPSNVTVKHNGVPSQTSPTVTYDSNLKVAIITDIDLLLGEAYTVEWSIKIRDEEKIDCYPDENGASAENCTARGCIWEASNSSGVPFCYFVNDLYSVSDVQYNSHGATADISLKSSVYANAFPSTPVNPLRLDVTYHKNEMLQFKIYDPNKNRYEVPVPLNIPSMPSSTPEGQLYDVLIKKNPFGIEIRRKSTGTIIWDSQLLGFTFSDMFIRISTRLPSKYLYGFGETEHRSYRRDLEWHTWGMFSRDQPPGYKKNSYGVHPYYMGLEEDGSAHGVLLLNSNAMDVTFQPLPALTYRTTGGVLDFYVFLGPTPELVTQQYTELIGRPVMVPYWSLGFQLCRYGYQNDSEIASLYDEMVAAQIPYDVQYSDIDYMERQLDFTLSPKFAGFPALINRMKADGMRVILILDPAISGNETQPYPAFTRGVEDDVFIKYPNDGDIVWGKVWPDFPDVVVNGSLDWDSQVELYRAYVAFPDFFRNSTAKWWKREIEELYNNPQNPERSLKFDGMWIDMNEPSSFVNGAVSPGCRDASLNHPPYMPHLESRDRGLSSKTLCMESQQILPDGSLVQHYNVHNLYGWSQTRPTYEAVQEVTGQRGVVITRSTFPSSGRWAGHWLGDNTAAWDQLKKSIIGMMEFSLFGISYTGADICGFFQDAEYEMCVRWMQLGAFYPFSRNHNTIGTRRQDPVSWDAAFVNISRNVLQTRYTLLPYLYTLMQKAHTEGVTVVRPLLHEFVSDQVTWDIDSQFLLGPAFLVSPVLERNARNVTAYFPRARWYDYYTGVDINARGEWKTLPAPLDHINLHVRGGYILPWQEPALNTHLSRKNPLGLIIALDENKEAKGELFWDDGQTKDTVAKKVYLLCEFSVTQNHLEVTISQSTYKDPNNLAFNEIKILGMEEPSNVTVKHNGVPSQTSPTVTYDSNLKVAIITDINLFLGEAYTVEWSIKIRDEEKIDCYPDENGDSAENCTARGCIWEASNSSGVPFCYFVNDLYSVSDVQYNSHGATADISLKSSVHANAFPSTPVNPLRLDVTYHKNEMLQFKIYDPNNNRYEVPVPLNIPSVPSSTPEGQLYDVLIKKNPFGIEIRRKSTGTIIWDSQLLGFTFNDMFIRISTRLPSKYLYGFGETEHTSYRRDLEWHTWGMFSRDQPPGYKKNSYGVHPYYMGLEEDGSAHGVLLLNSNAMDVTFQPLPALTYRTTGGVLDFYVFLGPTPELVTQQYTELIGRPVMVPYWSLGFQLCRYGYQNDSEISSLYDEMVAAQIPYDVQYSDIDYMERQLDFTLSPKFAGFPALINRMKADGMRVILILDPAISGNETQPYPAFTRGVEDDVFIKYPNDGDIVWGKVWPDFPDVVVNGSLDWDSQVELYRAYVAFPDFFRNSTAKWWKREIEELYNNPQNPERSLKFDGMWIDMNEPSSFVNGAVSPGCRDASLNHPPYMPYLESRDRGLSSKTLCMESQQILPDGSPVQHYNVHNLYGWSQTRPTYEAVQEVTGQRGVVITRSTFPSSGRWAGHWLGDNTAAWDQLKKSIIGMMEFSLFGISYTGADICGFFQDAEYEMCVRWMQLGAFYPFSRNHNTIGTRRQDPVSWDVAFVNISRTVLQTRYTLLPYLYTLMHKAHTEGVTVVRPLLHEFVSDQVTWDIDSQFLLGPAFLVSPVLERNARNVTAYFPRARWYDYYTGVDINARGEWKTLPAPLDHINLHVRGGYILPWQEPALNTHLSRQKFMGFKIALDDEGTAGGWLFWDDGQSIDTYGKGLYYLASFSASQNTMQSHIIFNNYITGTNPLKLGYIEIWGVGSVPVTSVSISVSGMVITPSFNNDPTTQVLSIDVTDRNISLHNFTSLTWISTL

Compound | Concentration [1] | Concentration [2] | Concentration [3] | Concentration [4] | Concentration [5] | Concentration [6] | Concentration [7] | Concentration [8] | Concentration [9] | Concentration [10]
O[C@H]1[C@H](O)[C@@H](O[C@H]2[C@H](O)[C@H](O)C=C[C@@H]2O)C=C[C@H]1O | inactive | 850 µM | inactive | 60 µM | 190 µM | inactive | – | – | – | –
O[C@H]1[C@H](O)[C@@H](O[C@H]2C=C[C@@H](O)[C@@H](O)[C@@H]2O)C=C[C@H]1O | inactive | 275 µM | – | – | 250 µM | inactive | 1.5 mM | inactive | – | –
O[C@H]1[C@H](O)[C@@H](O)C=C[C@H]1O | inactive | – | inactive | – | 600 µM | inactive | – | inactive | inactive | –
O[C@@H]1[C@@H](O)[C@@H](O)[C@H](O[C@H]2[C@@H](O)[C@H](O)[C@@H](O)[C@@H](O)[C@@H]2O)[C@@H](O)[C@H]1O | inactive | – | inactive | 800 µM | 600 µM | inactive | – | – | inactive | –
O[C@H]1[C@H](O)[C@@H](O)[C@H](O)[C@@H](O)[C@H]1O | inactive | – | inactive | – | – | inactive | – | inactive | inactive | inactive
